According to patent US9549902B2, “Transdermal patch” (BOUTY S.P.A., priority 2005, dated 2017):

Columns and labels:
[1] = In vitro nitroglycerin permeation across mouse skin in Franz diffusion cells; assay type: in vitro ADME
Protocol: (§1) With the purpose of analysing the effect of sorbitan monooleate on nitroglycerin permeation kinetics, permeation of nitroglycerin from transdermal patches containing different concentrations of sorbitan monooleate was measured across mouse skin and human skin in Franz diffusion cells (produced by Hanson-Research).
(§2) The test was undertaken as described in the Italian Official Pharmacopoeia XI ed. and the European Pharmacopoeia 4th ed.
The permeation studies were conducted using Franz diffusion cells modified with an aperture 15 mm in diameter (membrane surface area 1.766 cm^2) and 7 ml cell volume. A phosphate buffer at pH 7 maintained under constant agitation was used as receptor fluid within the cell. […]
Within an hour of removal from the animal the skin samples were placed over the aperture of the cells to form a membrane and the transdermal patches to be analysed were each placed over a membrane and fastened with clips.
At determined intervals 300 μl of receptor solution were withdrawn and replaced each time with an equivalent volume of phosphate buffer.
The quantity of nitroglycerin in each sample was determined by means of HPLC analysis, using a 50:50 methanol/water mixture as mobile phase.
The results obtained for each patch were analyzed statistically using the t-test for independent samples. […]

[2] = In vitro nitroglycerin permeation across human skin (SCE membranes) in Franz diffusion cells; assay type: in vitro ADME
Protocol: as §1, §2
Samples of abdominal skin were obtained from the same donor by means of a surgical procedure.
Membranes consisting of the stratum corneum and epidermis (SCE membranes) were prepared by immersing the skin into distilled water at 60° C.±1° C. for one minute followed by their removal from the dermis. The membranes were dried in a dryer at about 25% ambient humidity, wrapped in aluminium sheets and maintained at a temperature of about −20° C.±1° C. until required. Dried membrane samples were rehydrated at ambient temperature by immersing in a saline solution for 16 hours. […]
The results obtained were analysed statistically using the t-test for independent samples.
The steady-state flux was then determined for each patch by linear regression of the cumulative quantity of drug permeated across the skin (μg/cm^2) as a function of time (h). […]

Action as absorption enhancer [1]: does not act as an absorption enhancer | Action as absorption enhancer [2]: does not act as an absorption enhancer
Substance: sorbitan monooleate
